Legend:
[1] = tested on: experimental ophthalmitis induced by bovine serum albumin in white rabbits (ophthalmitis I); assay: Ophthalmitis I: protein, white blood cell count and prostaglandins in anterior chamber aqueous humor; format: in vivo; settings: for Prostaglandin in anterior chamber aqueous humor: less than the assay limit; for Protein in anterior chamber aqueous humor / White Blood Cell count in anterior chamber aqueous humor: mean ± SE
Procedure: (§1) Seventeen male white rabbits weighing about 2 kg were used. They were fed with 80 g of Labo RG-RO (Nippon Agricultural Co., Ltd.) daily and had free access to tap water.
(§2) After 28 days when ophthalmitis I had nearly recovered, 2.5% BSA solution was administered in a dose of 25 mg/ml/kg into the auricular vein to cause ophthalmitis (ophthalmitis II). The severity of ophthalmitis was rated according to the rating scale^(1) of Yamauchi et al., based on the Draize method in which an increased weight given to the internal segment of the eye. Observation was made with a frequency of once in one or two days during the peak period of inflammation and once in three or four days before and after the peak period for ophthalmitis I and 3, 6, 12 and 24 hours after intravenous injection of BSA for ophthalmitis II.
(§3) Gross observation was made on the day after injection of BSA into the vitreous body and with the animals arranged in the decreasing order of severity of ocular inflammation, grouping was carried out in such a manner that the intensity distribution would be uniform over the groups. Thus, a physiological saline group of 7 animals, a 0.1% Compound [I] instillation group of 4 animals and a 0.5% Compound [I] instillation group of 5 animals were provided. After this grouping procedure, the test drugs and saline were respectively instilled into both eyes of the rabbits, 50 μl per dose, 4 times a day. For induction of ophthalmitis II, each drug was instilled into both eyes, 50 μl per dose, immediately after injection of BSA into the auricular vein and at 1-hour intervals thereafter, for a total of 14 times.

[2] = tested on: experimental ophthalmitis induced by bovine serum albumin in white rabbits (ophthalmitis II); assay: Anti-inflammatory effect in ophthalmitis II (intravenous bovine serum albumin relapse), gross severity scores; format: in vivo; settings: for Anterior chamber opacity, degree of inhibition relative to physiological saline group / Balbar conjunctival injection, degree of inhibition relative to physiological saline group / Corneal opacity, degree of inhibition relative to physiological saline group / Discharge, degree of inhibition relative to physiological saline group / External + Internal Grand Total Score, degree of inhibition relative to physiological saline group / External Segment Total Score, degree of inhibition relative to physiological saline group / Internal Segment Total Score, degree of inhibition relative to physiological saline group / Iridic injection, degree of inhibition relative to physiological saline group / Morphological change of iris, degree of inhibition relative to physiological saline group / Palpebral conjunctival edema, degree of inhibition relative to physiological saline group / Palpebral conjunctival injection, degree of inhibition relative to physiological saline group: ophthalmitis II; for Anterior chamber opacity score (Internal Segment) / Balbar conjunctival injection score (External Segment) / Corneal opacity score (External Segment) / Discharge score (External Segment) / External + Internal Grand Total Score / External Segment Total Score / Internal Segment Total Score / Iridic injection score (Internal Segment) / Morphological change of iris score (Internal Segment) / Palpebral conjunctival edema score (External Segment) / Palpebral conjunctival injection score (External Segment): ophthalmitis II, 3, 6, 12 and 24 hours after intravenous BSA, mean ± SE
Procedure: as §1, §2
^(1) Hideyasu Yamauchi, Makoto Ingu, Tadashi Iso and Kozo Uda: Anti-inflammatory effect of fluorometholone ophthalmic solution in experimental uveitis in rabbits, Folia Ophthalmologica Japonica, 24: 969-79 (1973).
as §3

[3] = tested on: experimental ophthalmitis induced by bovine serum albumin in white rabbits (ophthalmitis II); assay: Ophthalmitis II: protein, white blood cell count and prostaglandins in anterior chamber aqueous humor; format: in vivo; settings: for Prostaglandin in anterior chamber aqueous humor: less than the assay limit; for White Blood Cell count in anterior chamber aqueous humor: mean ± SE
Procedure: as §1, §2, §3

[4] = tested on: carrageenin edema in rats; assay: Carrageenin edema of the conjunctiva in rats; format: in vivo; settings: 4 hours after carrageenin; for Weight of Edema: mean ± SE for 10 eyes
Procedure: 1. Sodium 3-(4-bromobenzoyl)-2-aminophenyl-acetate (hereinafter referred to as Compound [I])
2. Sodium 3-(4-chlorobenzoyl)-2-aminophenyl-acetate (hereinafter referred to as Compound [II])
3. Sodium 3-benzoyl-2-aminophenylacetate (hereinafter referred to as Compound [III])
Using female Wister rates weighing 100 g in groups of 5 animals or 10 eyes, 0.05 ml of 1% carrageenin (dissolved in physiological saline at 50° C.) as a phlogogen was injected beneath the conjuctiva of both eyes to induce edema. Physiological saline, as a control, and test drugs were respectively instilled into both eyes 40 and 20 minutes before and immediately after the injection of carrageenin, in the amount of 2.5 μl per dose. Four hours after the phlogogen treatment, each animal was sacrificed by cervical dislocation and in accordance with the method of Maistrello et al.^(2), the scalp was peeled off toward the eyelid and the edematous portion together with the skin was removed along the lid margin and weighed.
^(2) Maistrello et al.: Quantitative Effect of Topically Applied Anti-inflammatory Agents on External Ocular Inflammation in Rats: Journal of Pharmaceutical Science, volume 62, pp. 1455-60(1973).

[5] = tested on: atropine-resistant miosis; assay: Atropine-resistant miosis after paracentesis; format: in vivo, albino rabbits; settings: for Miosis: 10 min after paracentesis
Procedure: (§4) The solutions of the following formulas were used.
(§5) Totally 28 male albino rabbits (4 rabbits×7 groups) with a body weight of about 2 kg werr used. They had been confirmed, before the experiment, to have mydriatic response to 1% atropine for at least 4 hours.
(§6) 50 μl each of 1% atropine solution was instilled into both eyes of the animals one hour before the 1st paracenthesis, in which approx. 0.2 ml/eye of aqueous humor (primary aqueous humor) was collected. Topical application of 50 μl each of the test drug solutions was conducted 30 min before the paracenthesis. Pupil diameter of each eye was measured with a slide caliper immediately before and 10 min after the paracenthesis. The 2nd paracenthesis was conducted 90 min after the 1st one, in which approx. 0.2 ml/eye of aqueous humor (secondary aqueous humor) was collected.

[6] = tested on: protein increase after paracentesis; assay: Protein increase in aqueous humor after paracentesis; format: in vivo, albino rabbits
Procedure: as §4, §5, §6

[7] = Stability with polyvinyl pyrrolidone and sodium sulfite (Experimental Example 6); format: physicochemical; settings: solution in which polyvinyl pyrrolidone and sodium sulfite coexist

SMILES: Nc1c(CC(=O)[O-])cccc1C(=O)c1ccc(Br)cc1.O.[Na+] [Compound [I], Sodium 3-(4-bromobenzoyl)-2-aminophenylacetate monohydrate]
- Inhibition of prostaglandins in the aqueous humor ([1]; 0.1% and 0.5%): substantially complete inhibition of prostaglandins in the aqueous humor
- Prostaglandin in anterior chamber aqueous humor ([1]; 0.1%): < 0.4 ng/mL
- Protein in anterior chamber aqueous humor ([1]; 0.1%): 48.7 ± 3.8 mg/Mml
- White Blood Cell count in anterior chamber aqueous humor ([1]; 0.1%): 5593 ± 3436 Cells/mm^3
- Prostaglandin in anterior chamber aqueous humor ([1]; 0.5%): < 0.4 ng/mL
- Protein in anterior chamber aqueous humor ([1]; 0.5%): 28.4 ± 1.6 mg/Mml
- White Blood Cell count in anterior chamber aqueous humor ([1]; 0.5%): 1980 ± 654 Cells/mm^3
- Anterior chamber opacity, degree of inhibition relative to physiological saline group ([2]; 0.1%): -47.4%
- Balbar conjunctival injection, degree of inhibition relative to physiological saline group ([2]; 0.1%): 27.0%
- Corneal opacity, degree of inhibition relative to physiological saline group ([2]; 0.1%): 57.1%
- Discharge, degree of inhibition relative to physiological saline group ([2]; 0.1%): 100%
- External + Internal Grand Total Score, degree of inhibition relative to physiological saline group ([2]; 0.1%): 35.7%
- External Segment Total Score, degree of inhibition relative to physiological saline group ([2]; 0.1%): 32.7%
- Internal Segment Total Score, degree of inhibition relative to physiological saline group ([2]; 0.1%): 40.7%
- Iridic injection, degree of inhibition relative to physiological saline group ([2]; 0.1%): 61.6%
- Morphological change of iris, degree of inhibition relative to physiological saline group ([2]; 0.1%): 44.2%
- Palpebral conjunctival edema, degree of inhibition relative to physiological saline group ([2]; 0.1%): 45.0%
- Palpebral conjunctival injection, degree of inhibition relative to physiological saline group ([2]; 0.1%): 29.8%
- Anterior chamber opacity score (Internal Segment) ([2]; 0.1%): 2.8 ± 0.8
- Balbar conjunctival injection score (External Segment) ([2]; 0.1%): 8.1 ± 0.4
- Corneal opacity score (External Segment) ([2]; 0.1%): 0.6 ± 0.2
- Discharge score (External Segment) ([2]; 0.1%): 0
- External + Internal Grand Total Score ([2]; 0.1%): 21.8 ± 2.1
- External Segment Total Score ([2]; 0.1%): 13.1 ± 1.1
- Internal Segment Total Score ([2]; 0.1%): 8.0 ± 1.2
- Iridic injection score (Internal Segment) ([2]; 0.1%): 2.8 ± 0.1
- Morphological change of iris score (Internal Segment) ([2]; 0.1%): 2.4 ± 0.4
- Palpebral conjunctival edema score (External Segment) ([2]; 0.1%): 1.1 ± 0.4
- Palpebral conjunctival injection score (External Segment) ([2]; 0.1%): 4.0 ± 0.3
- Anterior chamber opacity, degree of inhibition relative to physiological saline group ([2]; 0.5%): -47.4%
- Balbar conjunctival injection, degree of inhibition relative to physiological saline group ([2]; 0.5%): 27.0%
- Corneal opacity, degree of inhibition relative to physiological saline group ([2]; 0.5%): 57.1%
- Discharge, degree of inhibition relative to physiological saline group ([2]; 0.5%): 100%
- External + Internal Grand Total Score, degree of inhibition relative to physiological saline group ([2]; 0.5%): 34.2%
- External Segment Total Score, degree of inhibition relative to physiological saline group ([2]; 0.5%): 31.4%
- Internal Segment Total Score, degree of inhibition relative to physiological saline group ([2]; 0.5%): 33.3%
- Iridic injection, degree of inhibition relative to physiological saline group ([2]; 0.5%): 54.8%
- Morphological change of iris, degree of inhibition relative to physiological saline group ([2]; 0.5%): 32.6%
- Palpebral conjunctival edema, degree of inhibition relative to physiological saline group ([2]; 0.5%): 55.0%
- Palpebral conjunctival injection, degree of inhibition relative to physiological saline group ([2]; 0.5%): 60.5%
- Anterior chamber opacity score (Internal Segment) ([2]; 0.5%): 2.8 ± 0.5
- Balbar conjunctival injection score (External Segment) ([2]; 0.5%): 8.1 ± 0.3
- Corneal opacity score (External Segment) ([2]; 0.5%): 0.6 ± 0.2
- Discharge score (External Segment) ([2]; 0.5%): 0
- External + Internal Grand Total Score ([2]; 0.5%): 22.3 ± 1.1
- External Segment Total Score ([2]; 0.5%): 13.3 ± 0.6
- Internal Segment Total Score ([2]; 0.5%): 9.0 ± 0.7
- Iridic injection score (Internal Segment) ([2]; 0.5%): 3.3 ± 0.3
- Morphological change of iris score (Internal Segment) ([2]; 0.5%): 2.9 ± 0.3
- Palpebral conjunctival edema score (External Segment) ([2]; 0.5%): 0.9 ± 0.2
- Palpebral conjunctival injection score (External Segment) ([2]; 0.5%): 3.7 ± 0.1
- Inhibitory effect on inflammatory symptoms induced by intravenous antigen ([2]; both concentrations (0.1% and 0.5%), gross observation): substantially complete inhibition at both concentrations
- Prostaglandin in anterior chamber aqueous humor ([3]; 0.1%): < 0.4 ng/mL
- White Blood Cell count in anterior chamber aqueous humor ([3]; 0.1%): 1489 ± 499 Cells/mm^3
- Prostaglandin in anterior chamber aqueous humor ([3]; 0.5%): < 0.4 ng/mL
- White Blood Cell count in anterior chamber aqueous humor ([3]; 0.5%): 1673 ± 277 Cells/mm^3
- Degree of inhibition (carrageenin edema) ([4]; 1.0%): 16.9%
- Weight of Edema ([4]; 1.0%): 43.93 ± 4.138 mg
- Degree of inhibition (carrageenin edema) ([4]; 2.5%): 31.3%
- Weight of Edema ([4]; 2.5%): 36.323 ± 3.308 mg
- Inhibitory activity on miosis after paracentesis ([5]; Compound [I] 0.0001-0.1%, indomethacin as high as 0.5%): dose-related inhibitory activity on miosis after paracentesis
- Inhibition (miosis) ([5]; content 0.0001%): 9.2 ± 8.33%
- Miosis ([5]; content 0.0001%): 21.5 ± 1.97%
- Inhibition (miosis) ([5]; content 0.001%): 19.7 ± 6.08%
- Miosis ([5]; content 0.001%): 19.0 ± 1.44%
- Inhibition (miosis) ([5]; content 0.01%): 35.2 ± 6.75%
- Miosis ([5]; content 0.01%): 15.4 ± 1.60%
- Inhibition (miosis) ([5]; content 0.1%): 24.9 ± 16.4%
- Miosis ([5]; content 0.1%): 17.4 ± 3.80%
- Effect on protein increase compared with 0.5% indomethacin ([6]; 0.01% of Compound [I]): equivalent to that of 0.5% indomethacin
- Inhibition (protein increase) ([6]; content 0.0001%): 6.3%
- Inhibition (protein increase) ([6]; content 0.001%): 26.3%
- Inhibition (protein increase) ([6]; content 0.01%): 62.9%
- Inhibition (protein increase) ([6]; content 0.1%): 87.8%
- Anti-inflammatory effect compared with indomethacin ([6]; miosis and protein increase after paracentesis): stronger anti-inflammatory effect than indomethacin
- Inhibitory activity on protein increase after paracentesis ([6]; rabbit, in vivo): strong and dose-related inhibitory activity on protein increase after paracenthesis
- Decomposition of Compound [I] [7]: the decomposition of Compound [I] was not observed either

Reference: patent publication US4910225A, “Locally administrable therapeutic composition for inflammatory disease” (Senju Pharmaceutical Co., Ltd., priority 1988, dated 1990)
